Laboratory results taken from paper PMC10049026, “In Silico Binding of 2-Aminocyclobutanones to SARS-CoV-2 Nsp13 Helicase and Demonstration of Antiviral Activity” (International Journal of Molecular Sciences, 2023).
Like-named read-outs stand apart in the source and are kept apart here.

Tests used:
SARS-CoV-2 [1] = experiment: Cell survival following SARS-CoV-2 challenge; type: cell-based
[2] = tested on: wild-type (alpha strain, SARS-CoV-2, USA-WA1/2020) SARS-CoV-2; experiment: Inhibition of SARS-CoV-2 mediated cell death, wild type (dose response); type: cell-based
SARS-CoV-2 [3] = conditions: cited from earlier work
Helicase (NSP13) = conditions: cited from earlier work
SARS-CoV-2 [4] = tested on: SARS-CoV-2; parameters: method as in Ref11; conditions: in vivo (Sirian hamster); ref Ref11; cited from earlier work
[5] = read-out: Tox CC50, cited from earlier work
[6] = Severe acute respiratory syndrome coronavirus 2, Vero, read-out: IC50, dose response anti-viral testing (Figure 4), alpha strain USA-WA1/2020, legend names Vero cells
[7] = Severe acute respiratory syndrome coronavirus 2, wild-type (alpha strain, USA-WA1/2020), read-out: IC50 Values For inhibition of SARS-CoV-2 Mediated Cell Death, Wild Type
[8] = wild-type (alpha strain, USA-WA1/2020), read-out: IC50 Values For inhibition of SARS-CoV-2 Mediated Cell Death, Wild Type

## CC(C)[C@H](NC(=O)OCc1ccccc1)C(=O)NC1CCC1=O (stereo partly drawn) [Compound 3, Benzyl ((2S)-3-methyl-1-oxo-1-((2-oxocyclobutyl)amino)butan-2-yl) carbamate]
SARS-CoV-2 [1]; 5 µM inhibitor concentration
  Cell Survival following SARS-CoV-2 Challenge: 37.9
SARS-CoV-2 [1]; 50 µM inhibitor concentration
  Cell Survival following SARS-CoV-2 Challenge: 54.9
[2]; [6]
  IC50: 15.1 ± 8.22 µM
[2]; [7]
  IC50: 13.1 µM

## COc1ccc2cc1Oc1ccc(cc1)C[C@H]1c3c(cc4c(c3Oc3cc5c(cc3OC)CCN(C)[C@@H]5C2)OCO4)CCN1C [cepharanthine]
SARS-CoV-2 [3]; read-out: IC50, anti-SARS-CoV-2 activity
  IC50: 400 µM

## Oc1cc(O)c2c(c1)O[C@H](c1cc(O)c(O)c(O)c1)[C@H](O)[C@H]2c1c(O)cc(O)c2c1O[C@H](c1cc(O)c(O)c(O)c1)[C@H](O)[C@H]2c1c(O)cc(O)c2c1O[C@H](c1cc(O)c(O)c(O)c1)[C@H](O)C2 [Katacine]
Helicase (NSP13); Enzyme assay, ref Ref5
  IC50: 5.98 µM

## CNC(=C[N+](=O)[O-])NCCSCc1ccc(CN(C)C)o1.O=C([O-])CC(O)(CC(=O)[O-])C(=O)[O-].[Bi+3] [Ranitidine bismuth citrate]
SARS-CoV-2 [4]
  viral load redn in Animal lungs & nasal turbinate: 1 to 1.5 log
[5]; ref Ref11
  CC50: 3250 µM
Helicase (NSP13); In vitro & in vivo, ref Ref11, read-out: Enzyme Assay IC50
  IC50: 0.69 µM

## CCN(CC)C(=S)SSC(=S)N(CC)CC [Disulfiram]
SARS-CoV-2 [3]; in vitro assay, ref Ref10, read-out: Antiviral activity IC50
  IC50: 3.18 µM
Helicase (NSP13); Enzyme and in vitro assay, ref Ref10
  IC50: 0.41 µM

## Cc1ccc(S(=O)(=O)N[C@@H](Cc2ccccc2)C(=O)NCC2(O)CC2)cc1 [Compound 5, (S)-N-((1-hydroxycyclopropyl)methyl)-2-((4-methylphenyl)sulfonamido)-3-phenylpropanamide]
SARS-CoV-2 [1]; 5 µM inhibitor concentration
  Cell Survival following SARS-CoV-2 Challenge: 30.0
SARS-CoV-2 [1]; 50 µM inhibitor concentration
  Cell Survival following SARS-CoV-2 Challenge: 30.7

## COc1cc(C(=O)NS(=O)(=O)c2ccccc2C)ccc1Cc1cn(C)c2ccc(NC(=O)OC3CCCC3)cc12 [Zafirlukast]
Helicase (NSP13); Enzyme assay, ref Ref7
  IC50: 16.3 µM

## (2R)-2-((4-Methoxyphenyl) sulfonamido)-3-methyl-N-(2-oxocyclobutyl) butanamide [Compound 8]
SARS-CoV-2 [1]; 5 µM inhibitor concentration
  Cell Survival following SARS-CoV-2 Challenge: 32.0
SARS-CoV-2 [1]; 50 µM inhibitor concentration
  Cell Survival following SARS-CoV-2 Challenge: 49.1
[2]; [8]
  IC50: 13.7 µM

## Cc1ccc(S(=O)(=O)N[C@@H](Cc2c[nH]c3ccccc23)C(=O)NC2CCC2=O)cc1 (stereo partly drawn) [Compound 4, (2S)-3-(1H-Indol-3-yl)-2-((4-methylphenyl)sulfonamido)-N-(2-oxocyclobutyl)propanamide]
Vero cell line
  toxicity / growth inhibition of Vero cell line: least toxic against the Vero cell line
SARS-CoV-2 [1]; 5 µM inhibitor concentration
  Cell Survival following SARS-CoV-2 Challenge: 54.3
SARS-CoV-2 [1]; 50 µM inhibitor concentration
  Cell Survival following SARS-CoV-2 Challenge: 70.9
[2]; [6]
  IC50: 13.2 ± 2.35 µM
[2]; Severe acute respiratory syndrome coronavirus 2, read-out: IC50 Values For inhibition of SARS-CoV-2 Mediated Cell Death, Wild Type, wild-type (alpha strain, USA-WA1/2020)
  IC50: 6.7 µM
[2]; [8]
  IC50: 13 µM

## O=C(N[C@H](Cc1ccccc1)C(=O)NC1CCC1=O)OCc1ccccc1 (stereo partly drawn) [Compound 2, Benzyl ((2R)-1-oxo-1-((2-oxocyclobutyl)amino)-3-phenylpropan-2-yl) carbamate]
Vero cell line
  toxicity / growth inhibition of Vero cell line: some inhibitory effect on Vero cell line growth
SARS-CoV-2 [1]; 5 µM inhibitor concentration
  Cell Survival following SARS-CoV-2 Challenge: 24.2
SARS-CoV-2 [1]; 50 µM inhibitor concentration
  Cell Survival following SARS-CoV-2 Challenge: 34.7
SARS-CoV-2 [1]; at 5 µM
  cell survival: 24.2%
[2]; [6]
  IC50: 20.3 ± 14.4 µM
[2]; [7]
  IC50: 6.89 µM

## C=CCn1c(CSc2ccccc2[N+](=O)[O-])n[nH]c1=S [SSYA10-001]
[5]; In vitro, ref Ref4
  CC50: 80.5 µM

## CC(C)[C@H](NC(=O)CCCCCN1C(=O)C=CC1=O)C(=O)N[C@@H](CCCNC(N)=O)C(=O)Nc1ccc(COC(=O)Oc2ccc([N+](=O)[O-])cc2)cc1 [MC-Val-Cit-PABC-PNP]
Helicase (NSP13); Enzyme assay, ref Ref5
  IC50: 2.45 µM

## O=C(N[C@@H](Cc1ccccc1)C(=O)NC1CCC1=O)OCc1ccccc1 (stereo partly drawn) [Compound 9, Benzyl ((2S)-1-oxo-1-((2-oxocyclobutyl)amino)-3-phenylpropan-2-yl) carbamate]
SARS-CoV-2 [1]; 5 µM inhibitor concentration
  Cell Survival following SARS-CoV-2 Challenge: 41.6
SARS-CoV-2 [1]; 50 µM inhibitor concentration
  Cell Survival following SARS-CoV-2 Challenge: 57.5
[2]; [6]
  IC50: 8.53 ± 5.15 µM

## FPA124
SARS-CoV-2 [3]; ref Ref9, read-out: Antiviral activity IC50
  IC50: 14 µM
Helicase (NSP13); Enzyme assay, ref Ref9
  IC50: 8.5 µM

## O=C(N/N=C/c1cc(O)c(O)cc1O)c1cc2ccccc2cc1O [Dyngo-4a]
Helicase (NSP13); Enzyme assay, ref Ref5
  IC50: 0.63 µM

## Cc1ccc(S(=O)(=O)N[C@@H](Cc2ccccc2)C(=O)NC2CCC2=O)cc1 (stereo partly drawn) [Compound 1, (2S)-2-((4-Methylphenyl)sulfonamido)-N-(2-oxocyclobutyl)-3-phenylpropanamide]
SARS-CoV-2 [1]; 5 µM inhibitor concentration
  Cell Survival following SARS-CoV-2 Challenge: 39.3
SARS-CoV-2 [1]; 50 µM inhibitor concentration
  Cell Survival following SARS-CoV-2 Challenge: 49.8
[2]; [7]
  IC50: 15.4 µM

## C=C[C@@H]1C[C@]1(NC(=O)[C@@H]1C[C@@H]2CN1C(=O)[C@H](C(C)(C)C)NC(=O)O[C@@H]1C[C@H]1CCCCCc1nc3ccc(OC)cc3nc1O2)C(=O)NS(=O)(=O)C1CC1 [Grazoprevir]
SARS-CoV-2 [3]; in vitro assay, ref Ref6, read-out: Antiviral activity IC50
  IC50: 1.41 µM

## O=C(N[C@@H](Cc1ccc(O)cc1)C(=O)NC1CCC1=O)OCc1ccccc1 (stereo partly drawn) [Compound 7, Benzyl ((2S)-3-(4-hydroxyphenyl)-1-oxo-1-((2-oxocyclobutyl)amino)propan-2-yl) carbamate]
SARS-CoV-2 [1]; 5 µM inhibitor concentration
  Cell Survival following SARS-CoV-2 Challenge: -2
SARS-CoV-2 [1]; 50 µM inhibitor concentration
  Cell Survival following SARS-CoV-2 Challenge: 28.1

## Cc1ccc(S(=O)(=O)N[C@@H](Cc2ccccc2)C(=O)NCC(C)(C)O)cc1 [Compound 10, (S)-N-(2-hydroxy-2-methylpropyl)-2-((4-methylphenyl)sulfonamido)-3-phenylpropanamide]
Vero cell line
  toxicity / growth inhibition of Vero cell line: some inhibitory effect on Vero cell line growth
SARS-CoV-2 [1]; 5 µM inhibitor concentration
  Cell Survival following SARS-CoV-2 Challenge: 36.7
SARS-CoV-2 [1]; 50 µM inhibitor concentration
  Cell Survival following SARS-CoV-2 Challenge: 59.2
[2]; [6]
  IC50: 6.95 ± 1.95 µM
[2]; [7]
  IC50: 6.68 µM

## O=C1O[C@H]2[C@@H]3OC(=O)c4cc(O)c(O)c(O)c4-c4c(O)c(O)c5oc(=O)c6c(c(O)c(O)c7oc(=O)c4c5c76)-c4c(cc(O)c(O)c4O)C(=O)OC[C@H]3OC(O)[C@@H]2OC(=O)c2cc(O)c(O)c(O)c2-c2c1cc(O)c(O)c2O (mixture of isomers) [Punicalagin]
SARS-CoV-2 [3]; in vitro assay, ref Ref5, read-out: Antiviral activity IC50
  IC50: 0.347 µM
[5]; ref Ref5
  CC50: 33.9 µM
Helicase (NSP13); Enzyme assay, ref Ref5
  IC50: 0.43 µM

## Tannic acid
Helicase (NSP13); Enzyme assay, ref Ref5
  IC50: 1.25 µM

## CC(C)c1cc2c(c(O)c1O)[C@@]13CCCC(C)(C)[C@@H]1[C@H](OC3=O)[C@H]2O [Rosmanol]
Helicase (NSP13); Enzyme assay, ref Ref5
  IC50: 8.93 µM

## O=C([O-])c1cc(=O)[nH]c(=O)[nH]1.O=C([O-])c1cc(=O)[nH]c(=O)[nH]1.[Zn+2] [Zinc Orotate]
Helicase (NSP13); Enzyme assay, ref Ref5
  IC50: 4.12 µM

## O=C(O)CSc1cc(NS(=O)(=O)c2ccc(Br)cc2)c2ccccc2c1O [UMI-77]
Helicase (NSP13); Enzyme assay, ref Ref5
  IC50: 4.38 µM

## Cc1ccc(S(=O)(=O)N[C@H](Cc2ccccc2)C(=O)NC2CCC2=O)cc1 (stereo partly drawn) [Compound 6, (2R)-2-((4-Methylphenyl)sulfonamido)-N-(2-oxocyclobutyl)-3-phenylpropanamide]
SARS-CoV-2 [1]; 5 µM inhibitor concentration
  Cell Survival following SARS-CoV-2 Challenge: 26.6
SARS-CoV-2 [1]; 50 µM inhibitor concentration
  Cell Survival following SARS-CoV-2 Challenge: 35.9

## CC(C)=CCc1c(O)cc(O)c2c(=O)cc(-c3ccc(O)cc3)oc12 [licoflavone C]
Helicase (NSP13); Enzyme assay, ref Ref8
  IC50: 1.34 µM
